Experimental data as given in patent US20070161696A1, “Methods of using and compositions comprising selective cytokine inhibitory drugs for treatment, modification and management of pain” (priority 2004, published 2007).

What was measured:
[1] = system: TNF-α production; experiment: Inhibition of TNF-α production following LPS-stimulation of human PBMC and human whole blood, in vitro; format: cell-based; conditions: in vitro studies; compared with thalidomide
Protocol: In a specific embodiment, the pharmacological properties of 3-(3,4-dimethoxy-phenyl)-3-(1-oxo-1,3-dihydro-isoindol-2-yl)-propionamide are characterized in in vitro studies. Studies examine the effects of the compound on the production of various cytokines. Inhibition of TNF-α production following LPS-stimulation of human PBMC and human whole blood by the compound is investigated in vitro. The IC50's of the compound for inhibiting production of TNF-α are measured. […] The pharmacological effects of 3-(3,4-dimethoxy-phenyl)-3-(1-oxo-1,3-dihydro-isoindol-2-yl)-propionamide may derive from its action as an inhibitor of the generation of inflammatory cytokines.

[2] = Cardiovascular and respiratory function in anesthetized dogs; format: in vivo; conditions: anesthetized Beagle dogs; ascending doses 400, 800 and 1,200 mg/kg/day by infusion through the jugular vein; compared to vehicle control group
Protocol: The effects of 3-(3,4-dimethoxy-phenyl)-3-(1-oxo-1,3-dihydro-isoindol-2-yl)-propionamide on cardiovascular and respiratory function are investigated in anesthetized dogs. Two groups of Beagle dogs (2/sex/group) are used. One group receives three doses of vehicle only and the other receives three ascending doses of 3-(3,4-dimethoxy-phenyl)-3-(1-oxo-1,3-dihydro-isoindol-2-yl)-propionamide (400, 800, and 1,200 mg/kg/day). In all cases, doses of 3-(3,4-dimethoxy-phenyl)-3-(1-oxo-1,3-dihydro-isoindol-2-yl)-propionamide or vehicle are successively administered via infusion through the jugular vein separated by intervals of at least 30 minutes.
The cardiovascular and respiratory changes induced by 3-(3,4-dimethoxy-phenyl)-3-(1-oxo-1,3-dihydro-isoindol-2-yl)-propionamide are minimal at all doses when compared to the vehicle control group. 5.3 Studies Using Animal Pain Models

[3] = Clinical study in pain patients with upper extremity CRPS; format: in vivo, human; conditions: 1,200 mg as a continuous oral daily dose
Protocol: Selective cytokine inhibitory drugs of the invention such as 3-(3,4-dimethoxy-phenyl)-3-(1-oxo-1,3-dihydro-isoindol-2-yl)-propionamide are administered in an amount of 400 to 1,200 mg per day to patients with pain syndromes for three to six months. A baseline evaluation is performed for the effect of the drug treatment on pain intensity, impact of pain on activities of daily living, and consumption of other pain medications.
In a specific embodiment, clinical studies are performed in pain patients who have upper extremity CRPS that has not responded to conventional physical therapy and has been present for at least one year. In the early course of their diseases, patients have clear evidence of autonomic dysfunction with formal autonomic testing (Quantitative sudomotor axon reflex test (QSART), resting sweat output, and thermography). If this is unavailable, documentation of clinical signs indicates autonomic dysfunction (changes in hydration, temperature, skin, nail or hair growth) along with symptoms of allodynia and swelling. […] Responses are assessed using standard pain scales, e.g., Numeric Pain Scale Assessment (VAS) for pain, quality of life using the McGill Index and objective signs in clinical examination such as a visible reduction of swelling, sweating, discolorations in skin color, temperature changes, changes in skin, hair and nail growth, and fine motor movements. […]

## COc1ccc(C(CC(N)=O)N2Cc3ccccc3C2=O)cc1OC (stereo not drawn) [3-(3,4-Dimethoxy-phenyl)-3-(1-oxo-1,3-dihydro-isoindol-2-yl)-propionamide]
[1]
  pharmacological activity profile, potency relative to thalidomide: five to fifty times more potent than thalidomide
[2]
  cardiovascular and respiratory changes: minimal
[3]
  tolerability: well-tolerated
